Reference: article PMC4503722, “Novel Phenotypic Outcomes Identified for a Public Collection of Approved Drugs from a Publicly Accessible Panel of Assays” (PLoS ONE, 2015)
Read-outs that look alike come from different tables or passages of the source.

Tests used:
DLD-1 = experiment: cells; type: cell-based; details: for IC50: read-out: Basal_Viability ATP DLD-1 summarized IC50
SNU-C1 = experiment: cells; type: cell-based; details: for IC50: read-out: Basal_Viability ATP SNU-C1 summarized IC50
HCT116 = experiment: cells; type: cell-based
SW480 = experiment: cells; type: cell-based; details: for IC50: read-out: Basal_Viability ATP SW480 summarized IC50
RKO = experiment: cells; type: cell-based; details: for IC50: read-out: Basal_Viability ATP RKO summarized IC50
Colo320 = experiment: cells; type: cell-based; details: for IC50: read-out: Basal_Viability ATP Colo 320 summarized IC50
[1] = tested on: ECFC/ADSC co-culture cell nuclei number; details: for IC50: read-out: VEGF_ADSC\ECFC Angio Hoechst NucArea summarized IC50
[2] = tested on: endothelial tube formation in co-cultures of ECFCs and ADSCs treated with VEGF; experiment: cells; type: cell-based, human; details: for IC50: read-out: VEGF_ADSC\ECFC Angio CD31 TubeArea summarized IC50
[3] = tested on: HCT116 cells treated with a GSK3β inhibitor; experiment: cells; type: cell-based; details: for IC50: read-out: GSK3b inh pretreated_Viability ATP HCT116 summarized IC50
HeLa cells = experiment: cells; type: cell-based;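 as to Hela CellCycMod PI 4N summarized IC50: value tracks stimulation of 4N DNA content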

COc1ccc(-n2nc(CCC(=O)N(C)O)cc2-c2ccc(Cl)cc2)cc1 [NCGC00253573-01] was tested, and the “Basal_Viability ATP DLD-1 IC50/EC50” value (DLD-1) was 2.0757 µM, the “Basal_Viability ATP SNU-C1 IC50/EC50” value (SNU-C1) was 1.7479 µM and the “Basal_Viability ATP HCT116 IC50/EC50” value (HCT116) was 6.5453 µM. For the same compound, the “Basal_Viability ATP SW480 IC50/EC50” value (SW480) was 2.8124 µM, the “Basal_Viability ATP RKO IC50/EC50” value (RKO) was 4.1076 µM and the “Basal_Viability ATP Colo 320 IC50/EC50” value (Colo320) was 0.6615 µM.

With O=C(OCc1ccccc1)c1cccnc1 [NCGC00166105-04] the “VEGF_ADSC\ECFC Angio Hoechst NucArea IC50/EC50” value [1] was over 10 µM, the “VEGF_ADSC\ECFC Angio CD31 TubeArea IC50/EC50” value [2] was over 10 µM and the “Basal_Viability ATP DLD-1 IC50/EC50” value (DLD-1; assay number 23, concentration response) was over 20 µM. For the same compound, the “Basal_Viability ATP SNU-C1 IC50/EC50” value (SNU-C1; assay number 30, concentration response) was over 20 µM, the “Basal_Viability ATP HCT116 IC50/EC50” value (HCT116; assay number 25, basal, concentration response) was over 20 µM and the “Basal_Viability ATP RKO IC50/EC50” value (RKO; assay number 29, concentration response) was over 20 µM. For the same compound, the “Basal_Viability ATP Colo 320 IC50/EC50” value (Colo320; assay number 27, concentration response) was over 20 µM and the “GSK3b inh pretreated_Viability ATP HCT116 IC50/EC50” value ([3]; assay number 26, GSK3b inhibitor pretreated, concentration response) was over 20 µM.

CCCCCCCCCCCCCCCC[N+](C)(C)Cc1ccccc1.[Cl-] [NCGC00344524-01] was tested, and the “VEGF_ADSC\ECFC Angio Hoechst NucArea IC50/EC50” value [1] was over 10 µM, the “VEGF_ADSC\ECFC Angio CD31 TubeArea IC50/EC50” value [2] was 2.5333 µM and the “Hela CellCycMod PI 2N IC50/EC50” value (HeLa cells; assay number 14, 2N) was over 10 µM. The “Hela CellCycMod PI S Phase IC50/EC50” value (HeLa cells; assay number 15, S phase) was over 10 µM, the “Hela CellCycMod PI 4N IC50/EC50” value (HeLa cells; assay number 16, 4N) was over 10 µM and the “Hela CellCycMod PI MI IC50/EC50” value (HeLa cells; assay number 17, MI) was over 10 µM. For the same compound, the “Hela CellCycMod PI Cell Number IC50/EC50” value (HeLa cells; assay number 18, cell number) was over 10 µM.

For CCOP(=S)(OCC)SCSc1ccc(Cl)cc1 [NCGC00166170-02], the IC50 [1] was over 10 µM, the IC50 [2] was over 10 µM and the IC50 (DLD-1; assay number 23, basal) was over 20 µM. The IC50 (SNU-C1; assay number 30, basal) was over 20 µM, the IC50 (SW480; assay number 24, basal) was over 20 µM and the IC50 (RKO; assay number 29, basal) was over 20 µM. It also gave an IC50 (Colo320; assay number 27, basal) of over 20 µM and an IC50 ([3]; assay number 26, GSK3b inhibitor pretreated) of over 20 µM.

In the case of C=C(CC)C(=O)c1ccc(OCC(=O)O)c(Cl)c1Cl [NCGC00016260-13], the IC50 (DLD-1) is reported as 11.9 µM, the IC50 (SNU-C1) is reported as over 20 µM and the IC50 (HCT116; read-out: Basal_Viability ATP HCT116 summarized IC50) is reported as over 20 µM. It also gave an IC50 (SW480) of over 6.67 µM, an IC50 (RKO) of over 6.67 µM and an IC50 (Colo320) of over 20 µM. The IC50 [3] was 12.2 µM.

For COCCOC(=O)C1=C(C)NC(C)=C(C(=O)OC/C=C/c2ccccc2)C1c1cccc([N+](=O)[O-])c1 (centres unmarked) [NCGC00162150-04], the “VEGF_ADSC\ECFC Angio Hoechst NucArea IC50/EC50” value [1] was over 10 µM, the “VEGF_ADSC\ECFC Angio CD31 TubeArea IC50/EC50” value [2] was 6.4204 µM and the “Hela CellCycMod PI 2N IC50/EC50” value (HeLa cells; assay number 14, 2N) was over 10 µM. The “Hela CellCycMod PI S Phase IC50/EC50” value (HeLa cells; assay number 15, S phase) was over 10 µM, the “Hela CellCycMod PI 4N IC50/EC50” value (HeLa cells; assay number 16, 4N) was over 10 µM and the “Hela CellCycMod PI MI IC50/EC50” value (HeLa cells; assay number 17, MI) was over 10 µM. The “Hela CellCycMod PI Cell Number IC50/EC50” value (HeLa cells; assay number 18, cell number) was over 10 µM.

For Nc1nc(=O)n([C@@H]2O[C@H](CO)[C@@H](O)[C@@H]2F)cc1I [NCGC00262963-01], the “VEGF_ADSC\ECFC Angio Hoechst NucArea IC50/EC50” value [1] was over 10 µM, the “VEGF_ADSC\ECFC Angio CD31 TubeArea IC50/EC50” value [2] was 3.4717 µM and the “Hela CellCycMod PI 2N IC50/EC50” value (HeLa cells; assay number 14, 2N) was over 10 µM. For the same compound, the “Hela CellCycMod PI S Phase IC50/EC50” value (HeLa cells; assay number 15, S phase) was over 10 µM, the “Hela CellCycMod PI 4N IC50/EC50” value (HeLa cells; assay number 16, 4N) was over 10 µM and the “Hela CellCycMod PI MI IC50/EC50” value (HeLa cells; assay number 17, MI) was over 10 µM. For the same compound, the “Hela CellCycMod PI Cell Number IC50/EC50” value (HeLa cells; assay number 18, cell number) was 8.504 µM.

O=C1c2c(O)cccc2Cc2cccc(O)c21 [NCGC00091330-07] showed an IC50 [1] of over 10 µM, an IC50 [2] of 0.604 µM and an IC50 (HeLa cells; assay number 14, 2N, read-out: Hela CellCycMod PI 2N summarized IC50) of over 10 µM. For the same compound, the IC50 (HeLa cells; assay number 15, S phase, read-out: Hela CellCycMod PI S Phase summarized IC50) was over 10 µM, the IC50 (HeLa cells; assay number 16, 4N, read-out: Hela CellCycMod PI 4N summarized IC50) was over 10 µM and the IC50 (HeLa cells; assay number 17, MI, read-out: Hela CellCycMod PI MI summarized IC50) was over 10 µM. It also gave an IC50 (HeLa cells; assay number 18, cell number, read-out: Hela CellCycMod PI Cell Number summarized IC50) of over 10 µM.

CC(C)=CCC/C(C)=C/CC/C(C)=C/C(=O)OCC(=O)[C@@]1(O)CC[C@H]2[C@@H]3CCC4=CC(=O)C=C[C@]4(C)[C@H]3[C@@H](O)C[C@@]21C [NCGC00261967-01] was tested, and the “VEGF_ADSC\ECFC Angio Hoechst NucArea IC50/EC50” value [1] was over 10 µM, the “VEGF_ADSC\ECFC Angio CD31 TubeArea IC50/EC50” value [2] was 3.3384 µM and the “Hela CellCycMod PI 2N IC50/EC50” value (HeLa cells; assay number 14, 2N) was over 10 µM. The “Hela CellCycMod PI S Phase IC50/EC50” value (HeLa cells; assay number 15, S phase) was over 10 µM, the “Hela CellCycMod PI 4N IC50/EC50” value (HeLa cells; assay number 16, 4N) was over 10 µM and the “Hela CellCycMod PI MI IC50/EC50” value (HeLa cells; assay number 17, MI) was over 10 µM. The “Hela CellCycMod PI Cell Number IC50/EC50” value (HeLa cells; assay number 18, cell number) was 0.05952 µM.

For CN(C)/N=N/c1nc[nH]c1C(N)=O [NCGC00091861-07], the “IC50/EC50, VEGF_ADSC\ECFC Angio Hoechst NucArea (assay number 3)” value [1] was over 10 µM, the “IC50/EC50, VEGF_ADSC\ECFC Angio CD31 TubeArea (assay number 2)” value [2] was 4.5862 µM and the “IC50/EC50, Hela CellCycMod PI 2N (assay number 14)” value (HeLa cells; 2N) was over 10 µM. The “IC50/EC50, Hela CellCycMod PI 4N (assay number 16)” value (HeLa cells; 4N) was over 10 µM, the “IC50/EC50, Hela CellCycMod PI Cell Number (assay number 18)” value (HeLa cells; Cell Number) was over 10 µM and the “IC50/EC50, Hela CellCycMod PI MI (assay number 17)” value (HeLa cells; MI) was over 10 µM. For the same compound, the “IC50/EC50, Hela CellCycMod PI S Phase (assay number 15)” value (HeLa cells; S Phase) was over 10 µM.
